Reference: article PMC11845477, “Exploring the principles behind antibiotics with limited resistance” (Nature Communications, 2025)
Values joined by “and” are separate entries in the source; they are usually repeats but may differ in a detail not shown here. Equal values may be shown once. Read-outs that look alike come from different tables or passages of the source. Where a SMILES comes first, the peptide text is derived from it. Bridges are numbered along the chain shown (N, C = ends). [ ]: non-standard residue; d: D form. The star is where a group is joined. X1 = NC[C@@H](CC(=O)*)c1cccc(Cl)c1; Dab = NCC[C@H](N)C(=O)O; Dap = NC[C@H](N)C(=O)O

Tests used:
E. coli = format: cell-based, Escherichia coli; settings: Escherichia coli, survival at 10xMIC for 4 hours, single replicates, (fig 9a source data)
Procedure: (§1) We employed image analysis to quantify bacterial survival under fixed antibiotic concentrations (10xMIC for 4 hours) on E. coli, A. baumannii, K. pneumoniae, and P. aeruginosa. […] Survival rate was quantified by calculating the ratio of the viable cells after antibiotic treatment and the total initial viable cell count.
(§2) Fig. 9 Killing kinetics of the studied antibiotics. a Bacterial survival rate in response to toxic antibiotic exposure. […] The bars indicate the survival rate (log10) compared to the untreated initial viable cell count (see “Methods”). Data are presented as mean values of 5 biological replicates ± SEM. The antibiotic group differentiation is denoted by color. […] Survival was estimated by measuring cell viability (colony-forming units/ml) of 2 biologically independent strains following a 4-hour exposure to different concentrations of 16 antibiotics on E. coli ATCC25922 (for further details, see “Methods”). The antibiotic concentration that kills 99.9% of the E. coli population is indicated as a vertical dotted line (see Supplementary Data 5). Error bars represent standard error calculated from the colony counts by Poisson’s model. A Hill function was fitted to the dose-response data from two biological replicates, producing sigmoidal curves (Supplementary Data 5). The Hill coefficient reflects how steeply the survival rate decreases in response to increasing antibiotic concentration ([…]). […] X-axis label colors indicate mode of action groups. For detailed information on antibiotic and bacterial species, see Supplementary Data 1. Source data are provided as a Source Data file.
(§3) In this current study, the killing kinetics of each antibiotic was measured according to a previously established experimental protocol[62] with minor modifications. During this assay, the bacterial cultures were exposed to antibiotics in 96-well assay plates and their viability after 4 hours of exposure was quantified by two methods: i) microplating and colony counting or ii) fluorescent staining of cells and counting of the fluorescent units.
(§4) Specifically, these experiments were performed in the following steps: (1) Preparation of bacterial stocks. Single colonies from each strain were isolated and grown overnight in MHB medium at 37 °C, 160 rpm. In case of the fluorescently tagged E. coli strains, the medium was supplemented with 10 μg/mL chloramphenicol, to maintain the pZS2R plasmid. Overnight cultures were diluted 1:5000 and grown to an optical density at 600 nm (OD600) of 0.25. These cultures were concentrated by centrifugation and small aliquots of 50 μL containing ~2.2 × 10^9 cells were frozen in glycerol (stored at −80 °C). (2) Preparing assay plates with antibiotics. 96-well plates were filled with 235 μL MHB and supplemented with antibiotics using an automated digital dispenser (D300e, Tecan). In the case of SCH79797, we used minimal media. […] For testing the clearance efficacy of each antibiotic at a single lethal dose, the 10x of the MIC for each antibiotic-strain pair were prepared in at least three replicates. (3) Antibiotic exposure. During the dose response assay, frozen cultures of the E. coli strains expressing YFP and mCherry were thawed and mixed at a 1:1 ratio, diluted 1:1000 in 30 mL MHB and incubated for 45 min at 37 °C and 160 rpm. During the single-dose assay, the frozen cultures of experimental strains (E. coli, K. pneumoniae, A. baumannii) were also thawed and diluted 1:1000 in 30 mL MHB and incubated at 37 °C to reach an OD of 0.25 and 160 rpm. Following this incubation phase, these bacterial cultures were then aliquoted into the 96-well deep-well antibiotic plates (15 μL culture; total volume of 250 μL) at an inoculum density of about 10^7 CFU.

K. pneumoniae = format: cell-based, Klebsiella pneumoniae; settings: Klebsiella pneumoniae, survival at 10xMIC for 4 hours, single replicates, (fig 9a source data)
Procedure: as §1, §2, §3, §4

[1] = test system: P. aeruginosa ATCC BAA-3107 (SEN) and P. aeruginosa LESB58 (MDR); assay: Frequency-of-resistance (FoR) assay, relative MIC of mutants; format: cell-based, Pseudomonas aeruginosa
Procedure: The susceptibility of antibiotics to resistance development was evaluated in two strains of each bacterial species: a multidrug-resistant strain and an antibiotic-sensitive strain of Escherichia coli, Klebsiella pneumoniae, Acinetobacter baumannii, and Pseudomonas aeruginosa. To explore first-step resistance, we previously used a standard protocol for spontaneous frequency-of-resistance analysis (FoR assay) at multiple concentrations of each antibiotic[10],[28],[31]–[33]. […] For all other combinations, approximately 10^10 bacterial cells were exposed to one of each antibiotic on agar plates for two days at concentrations where the given strain is susceptible. We examined resistance levels by contrasting the minimum inhibitory concentration (MICs) of the mutated strains to the original wild-type bacterial strain (i.e., relative MIC).
To estimate the frequency of spontaneous mutations that confer resistance in a microbial population, we conducted a frequency of resistance (FoR) assay following established protocols[10],[31]–[33]. […] Prior to plating, bacteria were grown overnight in MHB medium at 37 °C and 250 RPM, then centrifuged and washed in MHB. All experiments were performed in triplicate, and plates were incubated at 37 °C for 48 hours. Total colony-forming units (CFUs) were determined by plating appropriate dilutions onto antibiotic-free MHB agar. Resistance frequencies were calculated by dividing the number of resistant colonies by the initial viable cell count. From the plates with the highest antibiotic concentration, ten colonies were selected for MIC determination and whole-genome sequencing.
A robotic liquid handling system was used to automatically prepare a 11 to 16-step serial dilution in 384-well microtiter plates (Greiner). A final concentration of 5 × 10^5 bacterial cells per mL were inoculated into each well containing 60 µL MHB medium. Bacterial cultures were incubated at 37 °C with continuous shaking (Infors shaker, 900 rpm with 3 mm throw) for 18 hours (2 replicates from each). Cell growth was monitored by measuring the optical density (OD600 values, using Biotek Synergy microplate reader). MIC was defined as the antibiotic concentration of complete growth inhibition (i.e., OD600 < 0.05). Relative MIC was calculated as follows:1 relativeMIC=MICevolved/MICancestor […]
Supplementary Figure 3. Resistance levels following the frequency of resistance assay across bacterial strains. The level of resistance was measured as the fold change in relative MIC between evolved and ancestral strains. Data are grouped by bacterial strain (A. baumannii (AB), E. coli (EC), K. pneumoniae (KP), and P. aeruginosa (PA)) and categorized as either multidrug-resistant (MDR) or sensitive (SEN). Each data point represents a laboratory evolved line, and boxplots show the median, first and third quartiles, with whiskers indicating the 5th and 95th percentiles. […]
analysis was performed using two-sided Dunn’s post-hoc test with Benjamini-Hochberg correction for multiple comparisons (**/ * indicates p < 0.01/ 0.05). For detailed information on antibiotic and bacterial species, see Supplementary Table 1. For mode of action groups, refer to Table 1. Source data are provided as a Source Data file.

[2] = P. aeruginosa ATCC BAA 3107 (PA-SEN), evolved line 1
[3] = P. aeruginosa ATCC BAA 3107 (PA-SEN), evolved line 1, evolved vs ancestor
[4] = P. aeruginosa ATCC BAA 3107 (PA-SEN), evolved line 2
[5] = P. aeruginosa ATCC BAA 3107 (PA-SEN), evolved line 2, evolved vs ancestor
[6] = P. aeruginosa ATCC BAA 3107 (PA-SEN), evolved line 3
[7] = P. aeruginosa ATCC BAA 3107 (PA-SEN), evolved line 3, evolved vs ancestor

`CN(C)[C@@H]1C(O)=C(C(N)=O)C(=O)[C@@]2(O)C(O)=C3C(=O)c4c(O)c(NC(=O)CN5CCCC5)cc(F)c4C[C@H]3C[C@@H]12` [Eravacycline] was tested, and the “Survival rate (log10)” value (E. coli; listed as ERA) was -1.588 log10 and -1.262 log10 and -1.406 log10 and -1.2833 log10 and -1.1562 log10, the “Survival rate (log10)” value (K. pneumoniae; listed as ERA) was -0.6401 log10 and -0.9022 log10 and -0.9087 log10 and -0.8384 log10 and -0.7454 log10 and the MIC of evolved line [1, 2] was 32 µg/mL. For the same compound, the “Relative MIC” value [1, 3] was 8, the MIC of evolved line [1, 4] was 32 µg/mL and the “Relative MIC” value [1, 5] was 8. The MIC of evolved line [1, 6] was 32 µg/mL and the “Relative MIC” value [1, 7] was 8.
For `CNC(C)C1CCC(N)C(OC2C(N)CC(N)C(OC3OCC(C)(O)C(NC)C3O)C2O)O1` (stereo not drawn) [Gentamicin], the “Survival rate (log10)” value (E. coli; listed as GEN) was -0.32 log10 and -0.3695 log10 and -0.2419 log10 and -0.4019 log10 and -0.3632 log10, the “Survival rate (log10)” value (K. pneumoniae; listed as GEN) was -0.9685 log10 and -0.989 log10 and -1.08 log10 and -0.8281 log10 and -1.091 log10 and the MIC of evolved line [1, 2] was 8 µg/mL. For the same compound, the “Relative MIC” value [1, 3] was 8, the MIC of evolved line [1, 4] was 8 µg/mL and the “Relative MIC” value [1, 5] was 8. The MIC of evolved line [1, 6] was 8 µg/mL and the “Relative MIC” value [1, 7] was 8.
`CC(C)C[C@@H]1NC(=O)[C@@H](Cc2ccccc2)NC(=O)[C@H](CCN)NC(=O)[C@@H](NC(=O)[C@H](CN)NC(=O)[C@@H](NC(=O)C[C@H](CN)c2cccc(Cl)c2)[C@@H](C)O)CCNC(=O)[C@H]([C@@H](C)O)NC(=O)[C@H](CCN)NC(=O)[C@H](CCN)NC1=O` [SPR206] (X1-T[Dap][Dab][Dab][dF]L[Dab][Dab]T; lactam 3-C (inferred); N-terminus assumed) was tested, and the “Survival rate (log10)” value (E. coli; listed as SPR) was -4.747 log10 and -3.687 log10 and -3.935 log10 and -4.007 log10 and -3.902 log10, the “Survival rate (log10)” value (K. pneumoniae; listed as SPR) was -4.671 log10 and -4.37 log10 and -3.671 log10 and the “Relative MIC” value ([1]; FoR assay, Pseudomonas aeruginosa ATCC BAA 3107 (PA-SEN), evolved line 1) was 1. The “Relative MIC” value ([1]; FoR assay, Pseudomonas aeruginosa ATCC BAA 3107 (PA-SEN), evolved line 2) was 1, the “Relative MIC” value ([1]; FoR assay, Pseudomonas aeruginosa ATCC BAA 3107 (PA-SEN), evolved line 3) was 1 and the MIC of evolved line [1, 2] was 1 µg/mL. The “Relative MIC” value [1, 3] was 1, the MIC of evolved line [1, 4] was 1 µg/mL and the “Relative MIC” value [1, 5] was 1. The MIC of evolved line [1, 6] was 1 µg/mL, the “Relative MIC” value [1, 7] was 1 and the MIC of evolved line ([1]; P. aeruginosa LESB 58 (PA-MDR), evolved line 1) was 128 µg/mL. The “Relative MIC” value ([1]; P. aeruginosa LESB 58 (PA-MDR), evolved line 1, evolved vs ancestor) was 32, the MIC of evolved line ([1]; P. aeruginosa LESB 58 (PA-MDR), evolved line 2) was 64 µg/mL and the “Relative MIC” value ([1]; P. aeruginosa LESB 58 (PA-MDR), evolved line 2, evolved vs ancestor) was 16. For the same compound, the MIC of evolved line ([1]; P. aeruginosa LESB 58 (PA-MDR), evolved line 3) was 64 µg/mL and the “Relative MIC” value ([1]; P. aeruginosa LESB 58 (PA-MDR), evolved line 3, evolved vs ancestor) was 16.
